The record followed here is PubChem BioAssay AID608 (Sanford-Burnham Center for Chemical Genomics, 2007).

Calls of active or inactive are those of the source. How the calls were made is not given here.

In the assay the target is Peptidyl-prolyl cis-trans isomerase FKBP1A (Homo sapiens) (UniProt P62942). As to the kind of experiment: FKBP12 binders, biophysical, NMR detection (AID 608). The settings on record: NMR binding, purified FKBP12.
Peptidyl-prolyl cis-trans isomerase FKBP1A (Homo sapiens), sequence (P62942 whole entry, looked up): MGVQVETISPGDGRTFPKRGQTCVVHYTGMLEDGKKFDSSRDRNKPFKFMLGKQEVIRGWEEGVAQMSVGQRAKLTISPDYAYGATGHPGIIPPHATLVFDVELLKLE
One may read the Kd as the concentration at which binding is half-saturated. On to `CC(=O)Nc1cnn(-c2ccccc2)c(=O)c1Cl`, for which the Kd was > 4 mM (inactive). In the case of `CCCCCCCCCCCCCc1ccco1` it was > 4 mM (inactive); in that of `O=C1OC(N2CCOCC2)c2ccccc21` (configuration not stated), > 4 mM (inactive); in that of `O=C1C2CC=CCC2C(=O)N1c1cccc(O)c1` (configuration not stated), > 4 mM (inactive). With `Nc1ccc(-c2cnco2)cc1` the figure was > 4 mM (inactive); with `NCc1ccc(-n2cccn2)cc1`, > 4 mM (inactive). Turning to `Cc1cc(C)nc(/N=C(/N)Nc2cccc(F)c2)n1`, the Kd is > 4 mM (inactive). With `CCOC(=O)c1cnc2sccn2c1=O` the figure was > 4 mM (inactive). In the case of `CCN1CCC2(CC1)CC1CC3C=CC1(CN2C(C)=O)O3` (configuration not stated) it was > 4 mM (inactive); in that of `O=C(Nc1nc2c(s1)CCCC2)c1cccnc1`, > 4 mM (inactive); in that of `C/C(O)=c1/sc2cc(C)nc(=N)n2c1=O`, > 4 mM (inactive). Regarding `Cn1c(=O)c2[nH]cnc2n(-c2ccccc2)c1=O`, the Kd is > 4 mM (inactive). For `c1ccc(-n2cnnc2)nc1`, the Kd was > 4 mM (inactive). In the case of `NCc1cccc2nsnc12`, the Kd is > 4 mM (inactive). In the case of `S=c1[nH]c2cccnc2[nH]1` it was > 4 mM (inactive); in that of `Cc1nn2c(=O)nc3sc4c(c3c2[nH]c1=O)CCCC4`, > 4 mM (inactive); in that of `NC(=O)CCn1cnc2ccccc21`, > 4 mM (inactive).

As for `c1ccc(-c2csc3ncn4nnnc4c23)cc1`, the Kd is > 4 mM (inactive).

Turning to `CC(=O)OC[C@H]1O[C@@H](Oc2cc(OC(C)=O)c3c(=O)cc(-c4ccc(OC(C)=O)cc4)oc3c2)[C@H](OC(C)=O)[C@@H](OC(C)=O)[C@@H]1OC(C)=O`, the Kd was > 4 mM (inactive). With `CSc1ccc(S(=O)(=O)N2CCCC2)cc1` the figure was > 4 mM (inactive); with `Nc1nnc(SCc2cccnc2)s1`, > 4 mM (inactive); with `NC(=O)c1ccc(N=Cc2ccc[nH]2)cc1`, > 4 mM (inactive). In the case of `CCOc1cc(S(=O)(=O)N2CCOCC2)ccc1F` it was > 4 mM (inactive). Turning to `CC(=O)N1CC2(C)CN(C(C)=O)CC(C)(C1)C2O` (configuration not stated), the Kd is > 4 mM (inactive). With `O=C(Nc1ccccc1Cl)c1cnccn1` the figure was > 4 mM (inactive). In the case of `Cc1cc(=O)n(CCc2ccccc2)c(O)c1C#N` it was > 4 mM (inactive).

In the case of `Nc1ccc2c(c1)COc1ccccc1O2`, the Kd was > 4 mM (inactive). In the case of `Cc1cc(C)c(-c2cc(C(F)(F)F)no2)c(=O)[nH]1` it was > 4 mM (inactive); in that of `Cc1ccc(NS(=O)(=O)N2CCOCC2)cc1Cl`, “inactive”. For the compound `NC(=O)c1ccccc1NC(=O)C1CC1`, the Kd is > 4 mM (inactive).

For the compound `CC(=O)NC1C(=O)Nc2c(C)cc(C)cc21` (configuration not stated), the Kd was > 4 mM (inactive). With `CC1(C)C(=O)N(O)C(C)(C)C(=O)N1O` the figure was > 4 mM (inactive); with `Nc1cc(N)nc(SCc2cccnc2)n1`, > 4 mM (inactive); with `CCOC(=O)C1CCC(=O)c2cccn21` (configuration not stated), > 4 mM (inactive).

Take `O=S(=O)(Nc1cc(Cl)cc(Cl)c1)N1CCOCC1`: the Kd entry is “inactive”. `COc1ccc(/C=N/n2cn[nH]c2=S)cc1`: the Kd was > 4 mM (inactive). In the case of `O=C(O)c1cc2ccccc2[nH]1` it was > 4 mM (inactive). `O=C(NC1=NCCS1)c1ccc([N+](=O)[O-])cc1Cl`: the Kd was > 4 mM (inactive).

Take `COc1cc(N)ncn1`: the Kd is > 4 mM (inactive). In the case of `CN(C)C(=O)Oc1cccc(-c2nnco2)c1` it was > 4 mM (inactive); in that of `COc1ccc2c(c1)[nH]c1c(C)nccc12`, > 4 mM (inactive); in that of `COc1c2ccoc2nc2c(OC)c(OCC(O)C(C)(C)O)ccc12` (configuration not stated), > 4 mM (inactive). In the case of `Cc1cc(=O)[nH]c(NCc2cccnc2)n1` it was > 4 mM (inactive). Take `NCc1ccc2c(c1)OCCCO2`: the Kd is > 4 mM (inactive). `C[C@@H]1C(=O)O[C@H]2[C@H]1CC[C@@]1(C)C=CC(=O)[C@@]3(C)O[C@@]213`: the Kd was > 4 mM (inactive).

For `CN1CCN(c2ccc(N)cc2)CC1`, the Kd is > 4 mM (inactive). In the case of `Cc1ccccc1N1CCN(C(=O)C2CCCCC2)CC1` it was > 4 mM (inactive); in that of `CCCc1ncc(C(O)c2cccc3ccccc23)n1C` (configuration not stated), > 4 mM (inactive). Consider `CN1CCC(NC(=O)c2c(F)cccc2Cl)CC1`, for which the Kd was > 4 mM (inactive). With `COC(=O)c1noc(C)c1C(C)=O` the figure was > 4 mM (inactive); with `O=C1NC(=O)C(C2SC(=O)NC2=O)S1` (configuration not stated), > 4 mM (inactive). With `Cn1cnc2c(=S)[nH]c(=O)n(Cc3ccccc3)c21` the figure was > 4 mM (inactive).

Regarding `O=c1cc(-c2ccccc2)oc2cc(O)cc(O)c12`, the Kd was > 4 mM (inactive). With `CC(=O)NC(O)C(=O)c1cccs1` (configuration not stated) the figure was > 4 mM (inactive); with `NC(CC(=O)O)c1ccccc1` (configuration not stated), > 4 mM (inactive); with `Cc1cc(=O)oc2cc3c(cc12)OCCO3`, > 4 mM (inactive).

As for `O=C1Cn2c(nc3ccccc32)N1c1ccccc1F`, the Kd was > 4 mM (inactive). For `CN1CCN(C2CCN(Cc3ccccc3)CC2)CC1`, the Kd was > 4 mM (inactive).

Consider `O=C(O)CNS(=O)(=O)c1cccs1`, for which the Kd is > 4 mM (inactive).

As to `CC(C)(C)CC(=O)NNC(=O)c1cnccn1`, the Kd is > 4 mM (inactive).

With `CC(=O)O[C@H]1C[C@@H](OC(C)=O)C(C)(C)C2C[C@@H](OC(C)=O)[C@@]3(C)C4=CC(=O)O[C@@H](c5ccoc5)[C@]4(C)CCC3[C@]21C` (some centres not stated), the Kd was > 4 mM (inactive). In the case of `O=c1ccnc(Nc2ccccc2O)[nH]1` it was > 4 mM (inactive).

For `COc1cc(-c2nnc(NC(C)=O)o2)cc(OC)c1OC`, the Kd was > 4 mM (inactive). Take `O=C(COc1ccc(S(=O)(=O)NC2CCCC2)cc1)N1CCOCC1`: the Kd result is “inactive”. Turning to `Cc1cccc(NC(=O)c2ccccc2C(=O)O)c1`, the Kd is > 4 mM (inactive). With `CN(C)c1ccc(NC(=O)CC(C(=O)O)N(C)C)cc1` (configuration not stated) the figure was > 4 mM (inactive); with `Cc1nnsc1C(=O)Nc1ccccn1`, > 4 mM (inactive). Consider `Oc1ccc(C(=S)N2CCOCC2)cc1`, for which the Kd is > 4 mM (inactive). As for `O=C(O)c1cc(O)c2c(c1)C(=O)c1cc(O)cc(O)c1C2=O`, the Kd is > 4 mM (inactive). With `Nc1cccc(C(=O)c2ccccc2)c1` the figure was > 4 mM (inactive). Regarding `Cc1sc2nc(NCCO)[nH]c(=O)c2c1C`, the Kd was > 4 mM (inactive). For the compound `c1ccc(CNc2ncnc3nc[nH]c23)nc1`, the Kd was > 4 mM (inactive). With `CC(=O)Oc1ccc(N2C(=O)C3C4C=CC(O4)C3C2=O)cc1` (configuration not stated), the Kd is > 4 mM (inactive). With `Cc1ccc(/C=N/n2c(C)nnc2C)cc1` the figure was > 4 mM (inactive); with `Cc1ccc2cc(C(=O)O)ccc2n1`, > 4 mM (inactive).

Turning to `CC(=O)c1ccc(-n2ccnc2)cc1`, the Kd was > 4 mM (inactive).

For the compound `O=C(Nc1ccccc1)C(=O)NC1CC1`, the Kd is > 4 mM (inactive). In the case of `CC(C)(OC(=O)c1ccccc1)[C@@H]1Cc2cc3ccc(=O)oc3cc2O1` it was > 4 mM (inactive); in that of `c1ccc2c(c1)nc(-c1cscn1)n2CCCCc1nn[nH]n1`, “inactive”. With `Cc1noc(C)c1C(=O)NC1=NCCS1` the figure was > 4 mM (inactive); with `Nc1nc(NCc2ccco2)nn1-c1ccccc1`, > 4 mM (inactive). `COc1ccc(C)cc1S(=O)(=O)NC1CCCC1`: the Kd is > 4 mM (inactive). Turning to `CCc1ccc(/C=N/n2cnnc2)cc1`, the Kd is > 4 mM (inactive). With `Cc1cc(=O)n2[nH]cnc2n1` the figure was > 4 mM (inactive); with `OC12C=CC(CC1)CC2`, > 4 mM (inactive).

Consider `NCc1ccc(S(=O)(=O)O)cc1`, for which the Kd was > 4 mM (inactive). With `CC(=O)c1cccc(NC(=O)NN2CCOCC2)c1` the figure was > 4 mM (inactive); with `COC(=O)[C@]1(C)CCC[C@]2(C)c3ccc(C(C)C)cc3C(=O)CC12` (some centres not stated), > 4 mM (inactive); with `N#Cc1cnn(Cc2ccc(Cl)cc2)c1N`, > 4 mM (inactive). As for `CC(C)=CC1C(C(=O)O)C1(C)C` (configuration not stated), the Kd was > 4 mM (inactive).

`OCc1ccccc1N1CCOCC1`: the Kd was > 4 mM (inactive). Take `CN1CCC=C(C(=O)O)C1`: the Kd is > 4 mM (inactive). Consider `Cn1nc(C(=O)Nc2cccnc2)cc1Cl`, for which the Kd is > 4 mM (inactive). `S=C(NC1CC1)NN1CCOCC1`: the Kd is > 4 mM (inactive). With `O=C(Nc1cnccn1)c1cccnc1` the figure was > 4 mM (inactive); with `Nc1cc(=O)[nH]c(=O)n1Cc1ccco1`, > 4 mM (inactive). In the case of `O=CN1CCN(C(=O)c2ccccc2Cl)CC1` it was > 4 mM (inactive); in that of `O=C1CC(=O)N(c2ccccc2F)C(=S)N1`, > 4 mM (inactive); in that of `CCP(=O)(CC)c1cccc(C)c1`, > 4 mM (inactive).

For `Cc1ccc(NS(=O)(=O)N2CCCCC2)cc1Cl`, the Kd result is “inactive”. With `Cc1c(N=Cc2ccc[nH]2)c(=O)n(-c2ccccc2)n1C`, the Kd is > 4 mM (inactive). Take `CCCCCCCCCCCC[C@H](C(=O)O)[C@@H](C)C(=O)O`: the Kd is > 4 mM (inactive). In the case of `Oc1cnc2ccccc2c1CN1CCOCC1` it was > 4 mM (inactive); in that of `CC(=O)NC12CC3CC(CC(O)(C3)C1)C2`, > 4 mM (inactive); in that of `OCc1ccc2c(c1)OCO2`, > 4 mM (inactive).

Consider `c1cc2n(c1)CCNC2c1ccncc1` (configuration not stated), for which the Kd was > 4 mM (inactive). In the case of `COc1cc2c(cc1OC)C1(O)C(=O)c3ccc(O)c(C(=O)O)c3OC1CO2` (configuration not stated) it was > 4 mM (inactive).
